Activity calls are given as the source filed them. The rule behind the calls is not given here.
Tests used:
Rattus norvegicus [1] = species on record: Rattus norvegicus; test: Inhibition of rat liver MAO assessed as release of 4-hydroxyquinoline from kynuramine at 3.6 x 10^-6 M preincubated for 10 mins
Rattus norvegicus [2] = species on record: Rattus norvegicus; test: Inhibition of rat liver MAO assessed as release of 4-hydroxyquinoline from kynuramine at 3.6 x 10^-6 M
Mus musculus [3] = test: Induction of gross behavioral activity in Swiss albino mouse assessed as decrease in motor activity with some clonic seizure at 50 mg/kg, ip after 25 to 30 mins; assay type: functional, organism-based; set-up: dose 50 mg/kg
Mus musculus [4] = test: Induction of gross behavioral activity in Swiss albino mouse assessed as increase in clonic seizure of hind quarters at 25 mg/kg, ip in presence of 5HT antagonist BOL; assay type: functional, organism-based; set-up: dose 25 mg/kg
Mus musculus [5] = test: Induction of gross behavioral activity in ip dosed Swiss albino mouse assessed as minimum effective dose; assay type: functional; conditions: read-out: MED
Mus musculus [6] = test: Induction of gross behavioral activity in 3 mg/kg of cyprohepatidine treated Swiss albino mouse assessed as increase in clonic seizure of hind quarters at 25 mg/kg, ip treated 40 mins after cyprohepatidine administration; assay type: functional, organism-based
Mus musculus [7] = test: Induction of gross behavioral activity in Swiss albino mouse assessed as increase in clonic seizure of hind quarters at 25 mg/kg, ip in presence of 3 mg/kg of cyprohepatidine; assay type: functional, organism-based
Mus musculus [8] = test: Induction of gross behavioral activity in Swiss albino mouse assessed as increase in clonic seizure of hind quarters at 25 mg/kg, ip in presence of 2 to 25 mg/kg of methysergide; assay type: functional, organism-based
Mus musculus [9] = test: Induction of gross behavioral activity in Swiss albino mouse assessed as clonic seizure of hind quarters at 50 mg/kg, ip after 10 to 15 mins; assay type: functional, organism-based; set-up: dose 50 mg/kg

SMILES | inhibition (Rattus norvegicus [1]) | inhibition (Rattus norvegicus [2]) | Activity (Mus musculus [3]) | Activity (Mus musculus [4]) | minimal effective dose (Mus musculus [5]) | Activity (Mus musculus [6]) | Activity (Mus musculus [7]) | Activity (Mus musculus [8]) | Activity (Mus musculus [9])
C#CCN(C)Cc1ccccc1 | 78% | 45% |  |  |  |  |  |  | 
NCCc1c[nH]c2ccccc12 [TRYPTAMINE] |  |  | Active | inactive | < 25 mg/kg | inactive | Active | Active | Active
